Values of other authors in article PMC5028780, “Receptor and transporter binding and activity profiles of albiflorin extracted from Radix paeoniae Alba” (Scientific Reports, 2016).

Tests used:
h5-HT2C receptors = conditions: reference not given; cited from earlier work
5-HT2C sites = test system: 5-HT2C sites; design: method as in PMID 11454919, PMID 10621762; conditions: antagonist properties; cited from earlier work

Compound | affinity for h5-HT2C receptors (h5-HT2C receptors) | affinity at 5-HT2C sites (5-HT2C sites)
CCOc1ccccc1OC(c1ccccc1)C1CNCCO1 (stereo not drawn) [Reboxetine] | mild affinity | 
CN(C)CCCC1(c2ccc(F)cc2)OCc2cc(C#N)ccc21 (stereo not drawn) [citalopram] |  | modest affinities
CN(C)CCCN1c2ccccc2CCc2ccc(Cl)cc21 [clomipramine] |  | modest affinities
